# Experimental data as given in publication PMC10508841, “Two jasmonic acid carboxyl methyltransferases in Gossypium hirsutum involved in MeJA biosynthesis may contribute to plant defense” (Frontiers in Plant Science, 2023).
# Legend:
# [1] = target: T1, GhJMT1 (Gossypium hirsutum, UniProt A0ACM8RG93); experiment: GC-MS product detection, recombinant E. coli supernatant; format: biochemical; conditions: SAM 1 uL of 100 mM, KCl, 25 °C, 30 min; empty vector control; product MeJA
# T1 construct: gene JMT1; cloning primers encode MQVLHMN... ...ALTKKW (derived)
# T1 sequence (A0ACM8RG93 1-371): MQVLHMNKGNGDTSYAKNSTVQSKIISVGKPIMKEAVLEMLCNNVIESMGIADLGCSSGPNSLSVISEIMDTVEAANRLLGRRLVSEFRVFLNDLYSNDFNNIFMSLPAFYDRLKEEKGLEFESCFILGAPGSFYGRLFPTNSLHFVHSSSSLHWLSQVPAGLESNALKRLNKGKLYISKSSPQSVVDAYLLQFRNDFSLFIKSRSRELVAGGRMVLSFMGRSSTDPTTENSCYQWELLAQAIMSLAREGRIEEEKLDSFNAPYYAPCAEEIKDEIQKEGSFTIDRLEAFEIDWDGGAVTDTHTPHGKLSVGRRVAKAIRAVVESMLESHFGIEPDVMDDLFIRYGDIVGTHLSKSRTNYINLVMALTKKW
# [2] = target: T2, GhJMT2 (Gossypium hirsutum, UniProt A0A2K9REX3); experiment: as above; format: biochemical; conditions: SAM 1 uL of 100 mM, KCl, 25 °C, 30 min; empty vector control; product MeJA
# T2 construct: gene JMT2; cloning primers encode MEVVQVL... ...PMDVFLF (derived)
# T2 sequence (A0A2K9REX3 1-372): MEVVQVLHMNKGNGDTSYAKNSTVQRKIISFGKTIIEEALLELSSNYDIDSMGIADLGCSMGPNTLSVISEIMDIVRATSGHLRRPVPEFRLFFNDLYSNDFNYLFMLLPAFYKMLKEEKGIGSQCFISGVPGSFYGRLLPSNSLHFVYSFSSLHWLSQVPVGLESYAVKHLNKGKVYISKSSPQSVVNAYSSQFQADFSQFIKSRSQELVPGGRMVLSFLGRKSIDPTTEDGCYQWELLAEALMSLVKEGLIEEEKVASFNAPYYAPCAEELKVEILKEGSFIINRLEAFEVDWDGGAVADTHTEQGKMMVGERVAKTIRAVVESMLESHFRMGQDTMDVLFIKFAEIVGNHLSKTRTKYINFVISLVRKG
compound,measurement,setting,value
CC/C=C\C[C@H]1C(=O)CC[C@@H]1CC(=O)O [jasmonic acid],"GC-MS product detection, recombinant E. coli supernatant",[1],recombinant GhJMT1 and GhJMT2 were both responsible for the conversion of JA to MeJA
same,"GC-MS product detection, recombinant E. coli supernatant",[2],recombinant GhJMT1 and GhJMT2 were both responsible for the conversion of JA to MeJA
